Source: US6136825A, “Sulfonamide compounds having 5-HT receptor activity” (Knoll Aktiengesellschaft, priority 1996, dated 2000)
Where a name gives a salt, the structure may show the parent alone.

Columns and labels:
5-HT1A = molecular target: T1, 5-HT1A (Rattus norvegicus, UniProt P19327); assay: inhibition of tritiated ligand ([3H]8-OH-DPAT) binding to 5-HT1A receptors, rat hippocampal tissue; parameters: species or system male Charles River CD rats; settings: for inhibition at 1 µM: at 10^-6 M, read-out: % displacement of specific binding, 5-HT1A; for Ki: 25° C., 30 minutes, pH 7.7
T1 construct: Hippocampal tissue from the brains of male Charles River CD rats; from tissue; host or cells: rat hippocampus (male Charles River CD rats), crude membrane pellet
T1 sequence (P19327 1-422): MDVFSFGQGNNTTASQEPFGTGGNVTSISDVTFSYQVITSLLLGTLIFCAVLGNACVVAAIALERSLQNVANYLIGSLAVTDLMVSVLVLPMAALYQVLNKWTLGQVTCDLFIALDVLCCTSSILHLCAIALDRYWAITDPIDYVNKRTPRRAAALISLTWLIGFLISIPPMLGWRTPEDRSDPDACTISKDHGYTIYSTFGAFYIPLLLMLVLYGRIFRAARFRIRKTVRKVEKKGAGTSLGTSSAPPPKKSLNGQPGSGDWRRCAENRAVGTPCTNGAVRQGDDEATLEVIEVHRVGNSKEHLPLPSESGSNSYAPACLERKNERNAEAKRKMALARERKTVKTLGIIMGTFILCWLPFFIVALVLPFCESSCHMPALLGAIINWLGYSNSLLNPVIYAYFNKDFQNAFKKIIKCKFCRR
Method: Hippocampal tissue from the brains of male Charles River CD rats weighing between 150-250 g were homogenised in ice-cold 50 mM Tris-HCl buffer (pH 7.7) when measured at 25° C., 1:40 w/v) and centrifuged at 30,000 g at 4° C. for 10 minutes. The pellet was rehomogenised in the same buffer, incubated at 37° C. for 10 minutes and centrifuged at 30,000 g at 4° C. for 10 minutes. The final pellet was resuspended in 50 mM Tris-HCl buffer (pH 7.7) containing 4 mM CaCl2, 0.1% L-ascorbic acid and 10 μM pargyline hydrochloride (equivalent to 6.25 mg wet weight of tissue/ml) and used immediately in the binding assay. Aliquots (400 μl; equivalent to 2.5 mg wet weight of tissue/tube) of this suspension were added to tubes containing the ligand (50 μl; 2 nM) and distilled water (50 μl; total binding) or 5-HT (50 μl; 10 μM; non-specific binding) or test compound (50 μl; at a single concentration of 10^-6 M or at 10 concentrations ranging from 10^-11 -10^-3 M). The ligand was [^3 H]8-hydroxy-2-(dipropylamino)tetralin ([^3 H]8-OH-DPAT) and the mixture was incubated at 25° C. for 30 minutes before the incubation was terminated by rapid filtration.
The filters were washed with ice-cold Tris-HCl buffer and dried. The filters were punched out into vials, scintillation fluid added and radioactivity determined by liquid scintillation counting. The percentage displacement of specific binding of the tritiated ligand was calculated for the single concentration (10^-6 M) of test compound. Displacement curves were then produced for those compounds which displaced ≥50% of specific binding of the tritiated ligand at 10^-6 M using a range of concentrations of the compound. The concentration which gave 50% inhibition of specific binding (IC50) was obtained from the curve. The inhibition coefficient Ki was then calculated using the formula [formula] in which [ligand] is the concentration of the tritiated ligand used and KD Is the equilibrium dissociation constant for the ligand.

[1] = molecular target: T2, D2-like dopamine receptors (Rattus norvegicus, UniProt P61169); assay: inhibition of tritiated (S)-sulpiride binding to D2-like dopamine receptors, rat striatal tissue; parameters: species or system male Charles River CD rats; settings: for inhibition at 1 µM: at 10^-6 M, read-out: % displacement of specific binding, D2-like; for Ki: 4° C., 40 minutes, pH 7.7
T2 construct: Striatal tissue from the brains of male Charles River CD rats; from tissue; host or cells: rat striatum (male Charles River CD rats), crude membrane pellet
T2 sequence (P61169 whole entry): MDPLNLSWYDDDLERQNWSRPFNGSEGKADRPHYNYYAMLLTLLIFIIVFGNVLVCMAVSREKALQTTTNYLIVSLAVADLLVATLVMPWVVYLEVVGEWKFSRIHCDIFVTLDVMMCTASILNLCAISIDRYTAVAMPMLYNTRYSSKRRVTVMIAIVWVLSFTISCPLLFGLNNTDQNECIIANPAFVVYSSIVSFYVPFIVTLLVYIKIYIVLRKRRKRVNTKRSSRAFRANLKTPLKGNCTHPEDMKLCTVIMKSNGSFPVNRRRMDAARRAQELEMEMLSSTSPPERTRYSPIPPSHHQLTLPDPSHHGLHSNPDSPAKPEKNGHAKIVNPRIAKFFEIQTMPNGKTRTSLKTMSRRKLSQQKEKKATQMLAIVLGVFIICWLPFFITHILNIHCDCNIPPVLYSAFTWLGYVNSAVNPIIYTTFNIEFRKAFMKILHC
Method: Striatal tissue from the brains of male Charles River CD rats weighing between 140-250 g were homogenised in ice-cold 50 mM Tris-HCl buffer (pH 7.7 when measured at 25° C.) and centrifuged at 40,000 g for 10 minutes. The pellet was resuspended in Tris salts buffer (50 mM Tris-HCl buffer containing 120 mM NaCl, 5 mM KCl, 2 mM CaCl2 and 1 mM MgCl2 with the addition of 6 mM ascorbic acid; pH 7.7 when measured at 25° C.), and again centrifuged at 40,000 g for 10 minutes. The final pellet was stored at -80° C. Before each test the pellet was resuspended in Tris salts buffer (equivalent to 2 mg wet weight of tissue/ml). Aliquots (720 μl; equivalent to 1.44 mg wet weight of tissue/tube) of this suspension were then added to tubes containing the ligand (40 μl; 1 nM) and Tris salts buffer (40 μl; total binding) or spiroperidol (40 μl; 10 nM; non-specific binding) or test compound (40 μl; at a single concentration of 10^-6 M or at 6 concentrations ranging from 10^-11 -10^-4 M). The ligand was tritiated (S)-sulpiride and the mixture was incubated at 4° C. for 40 minutes before the incubation was terminated by rapid filtration.
The filters were washed with ice-cold Tris-HCl buffer and dried. The filters were punched out in to vials, scintillation fluid added and were left for about 20 hours before being counted by scintillation spectrophotometry. The percentage displacement of specific binding of the tritiated ligand was calculated for the single concentration (10^-6 M) of test compound. Displacement curves were then produced over a range of concentrations for those compounds which displaced ≥50% of specific binding of the tritiated ligand at 10^-6 M. The concentration which gave a 50% inhibition of specific binding (IC50) was obtained from the curve. The inhibition coefficient Ki was then calculated using the formula [formula] in which [ligand] is the concentration of the tritiated ligand used and KD is the equilibrium dissociation constant for the ligand.

Row | SMILES | inhibition at 1 µM (5-HT1A) | inhibition at 1 µM [1] | Ki [1] | Ki (5-HT1A)
1 | O=S(=O)(NCC1CCN(C[C@H]2COc3ccc(Cl)cc3O2)CC1)c1ccc(F)c(Cl)c1 [Example 42, (S)-(-)-3-Chloro-N-{[1-(7-chloro-1,4-benzodioxan-2-ylmethyl)-4-piperidyl]methyl}-4-fluoro-benzenesulphonamide] | 80% | 84% |  | 
2 | Cc1c(C)c(C)c(S(=O)(=O)NCC2CCN(C[C@H]3COc4ccc(Cl)cc4O3)CC2)c(C)c1C [Example 22, (S)-N-{[1-(7-Chloro-1,4-benzodioxan-2-ylmethyl)-4-piperidyl]methyl}-2,3,4,5,6-pentamethylbenzenesulphonamide] | 59% |  | 317 nM | 
3 | COc1ccc(Cl)cc1S(=O)(=O)NCC1CCN(C[C@H]2COc3ccc(Cl)cc3O2)CC1 [Example 27, (S)-5-Chloro-N-{[1-(7-chloro-1,4-benzodioxan-2-ylmethyl)-4-piperidyl]methyl}-2-methoxybenzenesulphonamide] | 68% |  | 351 nM | 
4 | COc1ccc(S(=O)(=O)NCC2CCN(C[C@H]3COc4ccc(Cl)cc4O3)CC2)cc1OC [Example 6, (S)-(-)-N-{[1-(7-chloro-1,4-benzodioxan-2-ylmethyl)-4-piperidyl]methyl}-3,4-dimethoxybenzenesulphonamide] |  |  | 40.2 nM | 20 nM
5 | O=S(=O)(NCC1CCN(C[C@H]2COc3ccc(C(F)(F)F)cc3O2)CC1)c1cccc(Cl)c1Cl [Example 14, (S)-(-)-2,3-dichloro-N-{[1-(7-trifluoromethyl-1,4-benzodioxan-2-ylmethyl)-4-piperidyl]methyl}benzenesulphonamide] |  |  | 111 nM | 25 nM
6 | O=S(=O)(NCC1CCN(C[C@H]2COc3ccc(Br)cc3O2)CC1)c1cccc(Cl)c1Cl [Example 13, (S)-(-)-N-{[1-(7-bromo-1,4-benzodioxan-2-ylmethyl)-4-piperidyl]methyl}-2,3-dichlorobenzensulphonamide] |  |  | 102 nM | 20 nM
7 | O=S(=O)(NCC1CCN(C[C@H]2COc3ccc(Cl)cc3O2)CC1)c1cc(Br)ccc1Br [Example 36, (S)-2,5-Dibromo-N-{[1-(7-Chloro-1,4-benzodioxan-2-ylmethyl)-4-piperidyl]methyl}-benzenesulphonamide] | 68% |  | 487 nM | 
8 | O=S(=O)(NCC1CCN(C[C@H]2COc3ccc(Cl)cc3O2)CC1)c1ccc(I)cc1 [Example 18, (S)-N-{[1-(7-Chloro-1,4-benzodioxan-2-ylmethyl)-4-piperidyl]methyl}-4-iodo-benzenesulphonamide] | 90% |  | 227 nM | 
9 | O=S(=O)(NCC1CCN(C[C@H]2COc3ccc(Br)cc3O2)CC1)c1ccccc1Cl [Example 46, (S)-(-)-N-{[1-(7-Bromo-1,4-benzodioxan-2-ylmethyl)-4-piperidyl]methyl}-2-chlorobenzenesulphonamide] | 96% | 106% |  | 
10 | O=S(=O)(NCC1CCN(C[C@H]2COc3ccc(Cl)cc3O2)CC1)c1ccccn1 [Example 1, (S)-(-)-N-{[1-(7-chloro-1,4-benzodioxan-2-ylmethyl)-4-piperidyl]methyl}pyridine-2-sulphonamide monohydrochloride 0.6 hydrate] |  |  | 29.4 nM | 86.8 nM
11 | O=S(=O)(NCC1CCN(C[C@H]2COc3ccc(Cl)cc3O2)CC1)c1ccc(OC(F)(F)F)cc1 [Example 29, (S)-N-{[1-(7-Chloro-1,4-benzodioxan-2-ylmethyl)-4-piperidyl]methyl}-4-trifluoromethoxybenzenesulphonamide] | 67% |  | 357 nM | 
12 | O=S(=O)(NCC1CCN(C[C@H]2COc3ccc(Cl)cc3O2)CC1)c1cccc(C(F)(F)F)c1 [Example 28, (S)-N-{[1-(7-Chloro-1,4-benzodioxan-2-ylmethyl)-4-piperidyl]methyl}-3-trifluoromethylbenzenesulphonamide] | 68% |  | 352 nM | 
13 | O=S(=O)(NCC1CCN(C[C@H]2COc3ccc(Cl)cc3O2)CC1)c1ccc(C(F)(F)F)cc1Cl [Example 17, (S)-2-Chloro-N-{[1-(7-chloro-1,4-benzodioxan-2-ylmethyl)-4-piperidyl]methyl}-4-trifluoromethylbenzenesulphonamide] | 88% |  | 519 nM | 
14 | O=S(=O)(NCC1CCN(C[C@H]2COc3ccc(Cl)cc3O2)CC1)c1ccc(Cl)cc1 [Example 11, (S)-(-)-N-{[1-(7-chloro-1,4-benzodioxan-2-ylmethyl)-4-piperidyl]methyl}-4-chlorobenzene-sulphonamide] |  |  | 157 nM | 69 nM
15 | O=S(=O)(NCC1CCN(C[C@H]2COc3ccc(Cl)cc3O2)CC1)c1ccccc1F [Example 40, (S)-(-)-N-{[1-(7-Chloro-1,4-benzodioxan-2-ylmethyl)-4-piperidyl]methyl}-2-fluorobenzenesulphonamide] | 93% | 107% |  | 
16 | Cc1ccc(F)cc1S(=O)(=O)NCC1CCN(C[C@H]2COc3ccc(Cl)cc3O2)CC1 [Example 35, (S)-N-{[1-(7-Chloro-1,4-benzodioxan-2-ylmethyl)-4-piperidyl]methyl}-5-fluoro-2-methylbenzenesulphonamide] | 81% |  | 328 nM | 
17 | O=S(=O)(NCC1CCN(C[C@H]2COc3ccc(Cl)cc3O2)CC1)c1ccccc1 [Example 34, (S)-N-{[1-(7-Chloro-1,4-benzodioxan-2-ylmethyl)-4-piperidyl]methyl}benzene-sulphonamide] | 87% |  | 88 nM | 
18 | COc1cc(C)c(S(=O)(=O)NCC2CCN(C[C@H]3COc4ccc(Cl)cc4O3)CC2)c(C)c1C [Example 19, (S)-N-{[1-(7-Chloro-1,4-benzodioxan-2-ylmethyl)-4-piperidyl]methyl}-4-methoxy-2,3,6-trimethylbenzenesulphonamide] | 55% |  | 306 nM | 
19 | O=S(=O)(NCC1CCN(C[C@H]2COc3ccc(Cl)cc3O2)CC1)c1ccc2ccccc2c1 [Example 30, (S)-N-{[1-(7-Chloro-1,4-benzodioxan-2-ylmethyl)-4-piperidyl]methyl}-2-naphthalenesulphonamide] | 65% |  | 241 nM | 
20 | O=S(=O)(NCC1CCN(C[C@H]2COc3ccc(Cl)cc3O2)CC1)c1ccc(C(F)(F)F)cc1 [Example 24, (S)-N-{[1-(7-Chloro-1,4-benzodioxan-2-ylmethyl)-4-piperidyl]methyl}-4-trifluoromethylbenzenesulphonamide] | 90% |  | 533 nM | 
